Patent US20230046081A1, “SYNERGISTIC ACTIVITY OF NOVEL COMPOUNDS AGAINST PLANKTONIC AND BIOFILM CELLS OF CLINICALLY RELEVANT PATHOGENS” (priority 2021, published 2023)
Where a name gives a salt, the structure may show the parent alone.

What was measured:
[1] = tested on: Gram-positive, Gram-negative, and fungal biofilms; test: MBEC Assay, 48 h old biofilms on pegs, 24 h antimicrobial exposure; assay type: cell-based; details: 24 hours of treatment
Procedure: The evaluation of the biofilm cultivation cell composition was evaluated using an MBEC Assay® biofilm inoculator, consisting of a polystyrene lid with 96 downward-protruding pegs and a corresponding base used to grow biofilms. A standardized inoculum was diluted in an appropriate biofilm growth medium to achieve a viable cell count of 1.5×10^6 CFU/mL of bacterial cells or 5×10^5 CFU/mL of fungal cells. Then, 150 μL of this inoculum was transferred into each appropriate well, and the peg lids were inserted into the microtiter plates. The plates were sealed with Parafilm and were incubated at optimum temperature for 48 h with slight rocking for bacteria and shaking at 200 rpm for fungal strains. After incubation, the peg lid was removed from the base and rinsed twice with sterile phosphate-buffered saline (PBS) for 2 min to remove loosely attached non-sessile cells. Before the antimicrobial challenge, the pegs in column 1 (n=8) were considered as the biofilm growth control; these pegs were removed from the lids, placed into 200 μL of recovery medium, and analyzed for starting biofilm cell numbers as described below. […] After the antimicrobial challenge, the pegs were rinsed twice with sterile PBS for 2 min and placed into a new 96-well plate containing 200 μL of recovery medium. The recovery plates were sealed with Parafilm, and biofilm cells were dislodged from the pegs by sonication for 30 min with a Branson 3510 bath sonicator. The biofilm cells in the recovery medium were serially diluted, and a drop dilution assay was performed to enumerate the viable cells.

[2] = tested on: bacterial and fungal biofilms (eight test organisms); test: Rapid biofilm eradication, 48-h old biofilms, 2 hour exposure; assay type: cell-based
Procedure: This example comprises performing biofilm growth as described above. After biofilm formation, control pegs (n=6) were removed and analyzed to determine the starting biofilm cell numbers via the drop dilution method. The 48-h old biofilms on the pegs were exposed to different concentrations of test antimicrobials, dissolved in an appropriate growth medium, for 2 hours to evaluate their efficacy alone and in combination. […] Following treatment, pegs were washed twice with sterile PBS, and the biofilm cells were dislodged into recovery medium and enumerated as described above.

[3] = dog, in vivo; cited from earlier work
[4] = tested on: commonly encountered pathogens; details: cited from earlier work
[5] = tested on: Klebsiella pneumoniae, E. coli, S. epidermidis, P. aeruginosa, and C. albicans; details: 40 mg/mL, locked for 21-25 h; cited from earlier work

Q: Which “concentration alone able to eradicate all established biofilms” value [1] does the source give for `[H]/N=C(\N/C(=N/[H])NCCCCCCNC(=N)NC(=N)Nc1ccc(Cl)cc1)Nc1ccc(Cl)cc1` [chlorhexidine HCl, 1,6-bis(4-chloro-phenylbiguanido)hexane, reference compound] here?
A: The value was 100 µg/mL.

Q: What about the “eradication of preformed biofilms, agent alone at its MBEC” value [2] of the same molecule?
A: The value was “failed to eradicate”.

Q: For `[H]/N=C(\N/C(=N/[H])NCCCCCCNC(=N)NC(=N)Nc1ccc(Cl)cc1)Nc1ccc(Cl)cc1` [chlorhexidine, 1,6-bis(4-chloro-phenylbiguanido)hexane], which “cochlear or vestibular neurotoxicity” value [3] is on record?
A: The value was “did not induce cochlear or vestibular neurotoxicity”.

Q: Which results are given for `CCO` [ethanol, reference compound]?
A: concentration alone able to eradicate all established biofilms [1]: 50%; eradication of preformed biofilms, agent alone at its MBEC [2]: failed to eradicate; minimum ethanol required to provide a 3-log reduction [4]: ≥ 60%

Q: What does the source list for `O=C(O)CN(CCN(CC(=O)O)CC(=O)O)CC(=O)O.[Na].[Na].[Na].[Na]` [tetrasodium EDTA, tetrasodium ethylenediaminetetraacetic acid]?
A: concentration alone able to eradicate all established biofilms [1]: 4%; eradication of preformed biofilms, agent alone at its MBEC [2]: failed to eradicate; biofilm colonization on catheter segments [5]: reduced biofilm colonization
